# In paper PMC10934653, “Identification of Hypoglycemic Glycolipids from Ipomoea murucoides by Affinity-Directed Fractionation, In Vitro, In Silico and Dynamic Light Scattering Analysis” (Plants, 2024):
# Biological target: T1, hepatic glucose-6-phosphatase (G6Pase)
# T1 construct: gene G6pc1; native, microsomal fraction from livers of starved Wistar rats; not purified; with Glucose-6-phosphate exchanger SLC37A4
# Assay: colorimetric phosphate release assay, rat liver microsomes
# Type: biochemical
# Conditions: 80 mM glucose-6-phosphate, 40 mM imidazole, 250 mM sucrose, pH 7, 20 °C, 20 min; positive control
compound,measurement,value
O=C(/C=C/c1ccc(O)c(O)c1)O[C@@H]1C[C@](O)(C(=O)O)C[C@@H](O)[C@H]1O [chlorogenic acid],IC50,122.5 µg/mL
